# Results: US20200038423A1, “USE OF 6-O-(C8-C20 ALKYL ESTER) OF 1-O-(C1-C6 ALKYL)-ß-D-GLUCOSIDE AS AN AGENT FOR PROTECTING THE SKIN” (PIERRE FABRE DERMO-COSMETIQUE, priority 2016, published 2020)
# What was measured:
# Type in all cases: cell-based
# [1] = test system: Normal human keratinocytes; assay: Keratinocyte differentiation judged from RT-qPCR of 6 target genes; details: 20 μM, incubation for 48 h
# Procedure: (§1) Normal human keratinocytes were incubated for 48 h with 1-O-n-butyl-β-D-glucoside 6-O-lauroyl. Its effects were evaluated using the RT-qPCR technique with the analysis of 6 target genes, chosen for their importance in keratinocyte differentiation and hydration.
# [2] = test system: primary normal human keratinocytes; assay: Oris Cell Migration Assay, keratinocyte migration; details: for % Stim (% stimulation of keratinocyte migration): 24 h migration
# Procedure: Oris™ Cell Migration Assays were used to estimate cell migration.
# Primary normal human keratinocytes isolated from tissues extracted during cosmetic surgery were seeded on 96-well plates and cultured in KSFM supplemented with 25 μg/ml bovine pituitary extract (BPE, Invitrogen) and 0.2 ng/ml EGF (Invitrogen). After 24 h of incubation, the culture medium is replaced with KSM without supplement. After 24 h of incubation, the Oris™ stoppers as well as the test compounds or positive controls are removed. The latter are 5 ng/ml TGF-β, 30 ng/ml EGF, or KSM supplemented with BPE and EGF. Incubation continues for the next 24 h to allow migration. At the end of incubation, Calcein AM dye, which penetrates the cells, is added to the wells and is converted to fluorescence which is then quantified in a detection zone using a monochromatic microplate (Clariostar, BMG Labteck).
# The compound tested is 1-O-n-butyl-β-D-glucoside 6-O-lauroyl, it is solubilized in DMSO at a concentration of 100 mM. The compound is tested at 2, 10 and 20 μM. The effect of DMSO at the tested concentrations has no effect on keratinocyte migration. The experiments are repeated on 2 donors with 8 wells for each condition.
# The quantification of the fluorescence emitted in the detection zone is proportional to keratinocyte migration. Statistical analyses (Mann-Whitney test) are used to analyze the effect of the compound. After fluorescence quantification, the cells were rapidly fixed in 4% paraformaldehyde before eosin-hematoxylin staining and observed under a microscope.
# SULT2B1 = assay: RT-qPCR, modulation of genes involved in keratinocyte differentiation and hydration: SULT2B1; details: CaCl2 1.5 mM; normal human keratinocytes, 48 h; lipid differentiation marker
# Procedure: as §1
# FABP5 = assay: RT-qPCR, modulation of genes involved in keratinocyte differentiation and hydration: FABP5; details: CaCl2 1.5 mM; normal human keratinocytes, 48 h; lipid differentiation marker
# Procedure: as §1
# DEGS2 = assay: RT-qPCR, modulation of genes involved in keratinocyte differentiation and hydration: DEGS2; details: CaCl2 1.5 mM; normal human keratinocytes, 48 h; lipid differentiation marker
# Procedure: as §1
# KLK7 = assay: RT-qPCR, modulation of genes involved in keratinocyte differentiation and hydration: KLK7; details: CaCl2 1.5 mM; normal human keratinocytes, 48 h; protein differentiation marker
# Procedure: as §1
# TGM1 = assay: RT-qPCR, modulation of genes involved in keratinocyte differentiation and hydration: TGM1; details: CaCl2 1.5 mM; normal human keratinocytes, 48 h; protein differentiation marker
# Procedure: as §1
# CASP14 = assay: RT-qPCR, modulation of genes involved in keratinocyte differentiation and hydration: CASP14; details: CaCl2 1.5 mM; normal human keratinocytes, 48 h; protein differentiation marker
# Procedure: as §1
compound,measurement,setting,value
"CCCCCCCCCCCC(=O)OC[C@H]1O[C@@H](OCCCC)[C@H](O)[C@@H](O)[C@@H]1O [β-LBG, 1-O-n-butyl-β-D-glucoside 6-O-lauroyl]",keratinocyte differentiation,[1],induces reproducible keratinocyte differentiation
same,keratinocyte migration,"[2]; both donors tested, at either 10 μM or 20 μM",stimulates keratinocyte migration
same,migration of normal human keratinocytes,[2]; concentrations of 10 to 20 μM,significantly stimulates
same,% Stim (% stimulation of keratinocyte migration),"[2]; donor 1, 2 μM",−30%
same,% Stim (% stimulation of keratinocyte migration),"[2]; donor 1, 10 μM",41%
same,% Stim (% stimulation of keratinocyte migration),"[2]; donor 1, 20 μM",104%
same,% Stim (% stimulation of keratinocyte migration),"[2]; donor 2, 2 μM",46%
same,% Stim (% stimulation of keratinocyte migration),"[2]; donor 2, 10 μM",63%
same,% Stim (% stimulation of keratinocyte migration),"[2]; donor 2, 20 μM",21%
[Ca+2].[Cl-].[Cl-] [CaCl2],"SULT2B1 expression, Mean (% Control)",SULT2B1,1169 % Control
same,"FABP5 expression, Mean (% Control)",FABP5,501 % Control
same,"DEG S2 expression, Mean (% Control)",DEGS2,217 % Control
same,"KLK7 expression, Mean (% Control)",KLK7,994 % Control
same,"TGM1 expression, Mean (% Control)",TGM1,910 % Control
same,"CASP14 expression, Mean (% Control)",CASP14,127 % Control
"EGF: positive control of migration, 30 ng/ml EGF [reference compound]",% Stim (% stimulation of keratinocyte migration),"[2]; donor 1, 30 ng/ml",35%
same,% Stim (% stimulation of keratinocyte migration),"[2]; donor 2, 30 ng/ml",87%
